According to ChEMBL document CHEMBL3632499, “Synthesis and Antiproliferative Activity Evaluation of the Disulfide-Containing Cyclic Peptide Thiochondrilline C and Derivatives” (J Nat Prod, 2015):

Tested on: A549
Experiment: Antiproliferative activity against human A549 cells assessed as growth inhibition at 10 uM
Assay type: functional
Settings: read-out: GI

## CN1C(=O)CNC(=O)[C@H](NC(=O)c2nc3ccccc3cc2O)CSSC[C@H]1C(=O)O
  inhibition of growth at 10 µM: < 30%

## COC(=O)[C@H](C)N(C)C(=O)[C@@H]1CSSC[C@@H](NC(=O)c2nc3ccccc3cc2O)C(=O)NCC(=O)N1C
  inhibition of growth at 10 µM: < 30%
